Measurements: US12509414B2, “Carbon quantum dot, a composition thereof and a method for treating infection by using same” (NATIONAL TAIWAN OCEAN UNIVERSITY, priority 2019, dated 2025)

System: E. coli (Escherichia coli)
Experiment: Antibacterial test, MIC by standard dilution method (O.D. 600)
Type: cell-based
Settings: FIG. 4
Procedure: The minimum inhibitory concentration (MIC) value of a carbon quantum dot was determined by a standard dilution method in a variety of tested bacterial strains, including E. coli (Escherichia coli), P. aeruginosa (Pseudomonas aeruginosa), S. enteritidis (Salmonella enterica), S. aureus (Staphylococcus aureus), MRSA (Methicillin-resistant Staphylococcus aureus, a multi-drug resistant Staphylococcus), S. iniae (Streptococcus iniae), and C. albicans (Candida albicans).
A single colony of each strain was removed from the culture medium, and inoculated in each suitable growth medium (10 mL). The cultured bacteria were grown at 37° C. with shaking (200 rpm), until the absorbance at 600 nm (O.D. 600) reaches 1.0 (optical path length: 1.0 cm). Each cell mixture was centrifuged at 1.0 mL (RCF 3,000×g, […], 25° C.), and washed twice with 5 mM sodium phosphate buffer (pH 7.4) before further use. The carbon quantum dots were mixed with a 10^5 CFU/mL bacterial solution, and the final concentration of the reaction bacterial solution was 10^4 CFU/mL. After reaction for 3 hours, each suitable growth medium was added. After 12 hours of incubation in the incubator at the culture temperature of each strain, the absorbance at 600 nm (O.D. 600) was measured.

Structure (SMILES): NCCCCCCN [C, 1,6-diamino-hexane]
- antibacterial ability (comparison in words): worst antibacterial effect
